Data from patent US12398179B2, “Nanomolar peptides and derivatives to differentially modulate ephrin receptors” (Sanford Burnham Prebys Medical Discovery Institute, priority 2019, dated 2025).
Values after ≈ are worked out from the molar mass of the structure shown. Non-standard residues stand in square brackets, D forms with d. Residues, ends and D or L forms follow the SMILES beside them. No end group written: not given here. *: point of attachment. Biotin = O=C1N[C@H]2[C@H](CS[C@H]2CCCCC(=O)*)N1; βAla = NCCC(=O)O

Columns and labels:
[1] = Peptide solubility in PBS/H2O
EphA2 = EphA2 (Homo sapiens, UniProt P29317); experiment: ELISA: inhibition of ephrin-A5 AP binding to immobilized EphA2 Fc; set-up: the immobilized EphA2 extracellular domain fused to the Fc portion of an antibody (EphA2 Fc); conditions: average ± SE
Experimental: (FIG. 2A) Representative ELISAs comparing the ability of the peptides to inhibit binding of ephrin-A5 fused to alkaline phosphatase (ephrin-A5 AP) to the immobilized EphA2 extracellular domain fused to the Fc portion of an antibody (EphA2 Fc). The graphs show averages±SE from triplicate measurements from a representative experiment. IC50 values calculated from the fitted curves in each experiment are shown. All concentrations are nM and the 100 nM peptide concentration is outlined in red. (FIG. 2B) Ephrin-A5 AP binding to the indicated EphA receptors and ephrin-B2 AP binding to the indicated EphB receptors in the presence of the indicated peptide, normalized to ephrin binding without peptide. The bars show averages±SE from triplicate measurements.

EphA2 LBD = biological target: T1, EphA2 LBD (Homo sapiens, UniProt P29317); experiment: Isothermal titration calorimetry (ITC) of peptide binding; conditions: 1 mM biotin
T1 construct: EphA2 LBD (residues 28-200); made in house; host or cells: E. coli Origami 2 (DE3)
Experimental: For ITC, all peptides were dissolved in DMSO and both the EphA2 LBD and the peptides were diluted to obtain a final buffer containing 9.5 mM HEPES, pH 7.9, 95 mM NaCl, and 5% DMSO. […] Two-microliter aliquots of a peptide solution were injected into the cell containing 205 μL EphA2 LBD. 200-400 μM peptides were titrated into 20-40 μM EphA2 LBD. Experimental data were analyzed using the Origin software package (Microcal). The integrated values for the reaction heats were normalized to the amount of injected peptide after blank subtraction.

[2] = PBS, Solubility in PBS (mg/ml), PBS (first figure of cell)
[3] = water, Solubility in H2O (mg/ml), H2O (second figure of cell)

EphA2, sequence (P29317 24-537 limits assumed, species assumed): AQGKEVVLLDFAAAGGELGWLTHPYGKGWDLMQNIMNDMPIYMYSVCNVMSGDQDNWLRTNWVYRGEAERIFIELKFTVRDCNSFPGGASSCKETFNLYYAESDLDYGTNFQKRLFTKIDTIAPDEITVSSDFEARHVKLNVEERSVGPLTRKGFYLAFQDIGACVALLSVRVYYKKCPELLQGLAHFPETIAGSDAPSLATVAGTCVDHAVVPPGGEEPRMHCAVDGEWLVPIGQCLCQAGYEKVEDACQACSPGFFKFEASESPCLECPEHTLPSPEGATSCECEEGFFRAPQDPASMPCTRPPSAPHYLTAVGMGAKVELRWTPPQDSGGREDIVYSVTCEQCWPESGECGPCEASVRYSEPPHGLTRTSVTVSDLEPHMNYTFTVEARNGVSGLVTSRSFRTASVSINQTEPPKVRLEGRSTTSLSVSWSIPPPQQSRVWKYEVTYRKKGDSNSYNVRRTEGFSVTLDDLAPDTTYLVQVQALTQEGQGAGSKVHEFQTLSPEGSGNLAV
T1 sequence (P29317 28-200): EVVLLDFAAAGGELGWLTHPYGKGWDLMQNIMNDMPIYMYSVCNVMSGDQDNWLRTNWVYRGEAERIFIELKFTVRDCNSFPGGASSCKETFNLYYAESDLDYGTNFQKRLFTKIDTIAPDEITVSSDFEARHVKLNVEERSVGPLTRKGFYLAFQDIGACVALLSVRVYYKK

Compound	solubility [1, 2] [µg/mL]	solubility ([1]; H2O, Solubility in H2O (mg/ml), H2O (second figure of cell)) [µg/mL]	solubility [1, 3] [µg/mL]	IC50 (EphA2) [nM]	binding to the EphA2 LBD by ITC (in words) (EphA2 LBD)
CC(C)C[C@H](NC(=O)[C@H](Cc1c[nH]c2ccccc12)NC(=O)[C@H](C)NC(=O)CNC(=O)[C@@H](N)CSCC(N)=O)C(=O)N[C@@H](C)C(=O)N[C@@H](Cc1ccc(O)cc1)C(=O)N1CCC[C@H]1C(=O)N[C@@H](CC(=O)O)C(=O)N[C@@H](CO)C(=O)N[C@H](C(=O)N1CCC[C@H]1C(=O)N[C@@H](Cc1ccc(O)cc1)C(=O)N[C@@H](CCCNC(=N)N)C(=O)N1CCC[C@H]1C(=O)N[C@@H](CCCCNC(=O)CCCC[C@@H]1SC[C@@H]2NC(=O)N[C@@H]21)C(=O)O)C(C)C [CcamGA-WLA-YRPK-bio]	< 100	–	–	–	–
CSCC[C@H](NC(=O)[C@@H]1CCCN1C(=O)[C@@H](NC(=O)[C@H](CO)NC(=O)[C@H](CC(=O)O)NC(=O)[C@@H]1CCCN1C(=O)[C@H](Cc1ccc(O)cc1)NC(=O)[C@H](C)NC(=O)[C@H](CO)NC(=O)[C@@H](N)Cc1ccc(O)cc1)C(C)C)C(N)=O [YSA1-10am]	10000 (≈ 8.86 mM)	–	10000 (≈ 8.86 mM)	–	–
CSCC[C@H](NC(=O)[C@H](CCSC)NC(=O)[C@@H]1CCCN1C(=O)[C@@H](NC(=O)[C@H](CO)NC(=O)[C@H](CC(=O)O)NC(=O)[C@@H]1CCCN1C(=O)[C@H](Cc1ccc(O)cc1)NC(=O)[C@H](C)NC(=O)[C@H](CO)NC(=O)[C@@H](N)Cc1ccc(O)cc1)C(C)C)C(=O)N[C@@H](CO)C(=O)N[C@@H](CCCCNC(=O)CCCC[C@@H]1SC[C@@H]2NC(=O)N[C@@H]21)C(=O)O [YSA-K-bio]	10000 (≈ 5.88 mM)	–	10000 (≈ 5.88 mM)	–	–
O=C(O)CCCC[C@@H]1SC[C@@H]2NC(=O)N[C@@H]21 [biotin, reference compound]	–	–	–	–	did not detect binding
CC(C)C[C@H](NC(=O)[C@H](Cc1c[nH]c2ccccc12)NC(=O)CCN)C(=O)N[C@@H](C)C(=O)N[C@@H](Cc1ccc(O)cc1)C(=O)N1CCC[C@H]1C(=O)N[C@@H](CC(=O)O)C(=O)N[C@@H](CO)C(=O)N[C@H](C(=O)N1CCC[C@H]1C(=O)N[C@@H](Cc1ccc(O)cc1)C(=O)N[C@@H](CO)C(=O)N[C@@H](CCCCNC(=O)CCCC[C@@H]1SC[C@@H]2NC(=O)N[C@@H]21)C(=O)O)C(C)C [βA-WLA-YSK-bio] (H-[βAla]WLAYPDSVPYSK(Biotin)-OH; N-terminus and C-terminus assumed)	2000 (≈ 1.16 mM)	–	–	–	–
CC(C)C[C@H](NC(=O)[C@H](Cc1c[nH]c2ccccc12)NC(=O)CCN)C(=O)N[C@@H](C)C(=O)N[C@@H](Cc1ccc(O)cc1)C(=O)N1CCC[C@H]1C(=O)N[C@@H](CC(=O)O)C(=O)N[C@@H](CO)C(=O)N[C@H](C(=O)N1CCC[C@H]1C(=O)N[C@@H](Cc1ccc(O)cc1)C(N)=O)C(C)C [βA-WLA-Yam] (HELM PEPTIDE1{[bAla].W.L.A.Y.P.D.S.V.P.Y.[am]}$$$$V2.0; N-terminus assumed)	–	–	5000 (≈ 3.9 mM)	410 ± 50	–
CSCC[C@H](NC(=O)[C@@H]1CCCN1C(=O)[C@@H](NC(=O)[C@H](CO)NC(=O)[C@H](CC(=O)O)NC(=O)[C@@H]1CCCN1C(=O)[C@H](Cc1ccc(O)cc1)NC(=O)[C@H](C)NC(=O)[C@H](CC(C)C)NC(=O)[C@H](Cc1c[nH]c2ccccc12)NC(=O)CCN)C(C)C)C(N)=O [βA-WLAam] (HELM PEPTIDE1{[bAla].W.L.A.Y.P.D.S.V.P.M.[am]}$$$$V2.0; N-terminus assumed)	10000 (≈ 8.01 mM)	–	10000 (≈ 8.01 mM)	840 ± 80	–

Now from value to compound, other results behind:

solubility [1, 2] [µg/mL]	solubility ([1]; H2O, Solubility in H2O (mg/ml), H2O (second figure of cell)) [µg/mL]	solubility [1, 3] [µg/mL]	IC50 (EphA2) [nM]	Compound	binding to the EphA2 LBD by ITC (in words) (EphA2 LBD)
10000 (≈ 4.96 mM)	10000 (≈ 4.96 mM)	–	–	CC(C)C[C@H](NC(=O)[C@H](Cc1c[nH]c2ccccc12)NC(=O)[C@H](C)NC(=O)[C@@H](N)CCCCNC(=O)CCCC[C@@H]1SC[C@@H]2NC(=O)N[C@@H]21)C(=O)N[C@@H](C)C(=O)N[C@@H](Cc1ccc(O)cc1)C(=O)N1CCC[C@H]1C(=O)N[C@@H](CC(=O)O)C(=O)N[C@@H](CO)C(=O)N[C@H](C(=O)N1CCC[C@H]1C(=O)N[C@@H](Cc1ccc(O)cc1)C(=O)N[C@@H](CCCNC(=N)N)C(=O)N1CCC[C@H]1C(=O)N[C@@H](CCCCN)C(N)=O)C(C)C [K-bioA-WLA-YRPKam]	–
10000 (≈ 5.67 mM)	–	5000 (≈ 2.83 mM)	4500	CSCC[C@H](NC(=O)[C@H](CCSC)NC(=O)[C@@H]1CCCN1C(=O)[C@@H](NC(=O)[C@H](CO)NC(=O)[C@H](CC(=O)O)NC(=O)[C@@H]1CCCN1C(=O)[C@H](Cc1ccc(O)cc1)NC(=O)[C@H](C)NC(=O)[C@H](CO)NC(=O)[C@@H](N)Cc1ccc(O)cc1)C(C)C)C(=O)N[C@@H](CO)C(=O)NCC(=O)N[C@@H](CO)C(=O)NCC(=O)N[C@@H](CO)C(=O)N[C@@H](CCCCN)C(=O)O [YSA-GSGSK]	–
5000 (≈ 2.72 mM)	–	5000 (≈ 2.72 mM)	330 ± 40	CC(C)C[C@H](NC(=O)[C@H](Cc1c[nH]c2ccccc12)NC(=O)CCN)C(=O)N[C@@H](C)C(=O)N[C@@H](Cc1ccc(O)cc1)C(=O)N1CCC[C@H]1C(=O)N[C@@H](CC(=O)O)C(=O)N[C@@H](CO)C(=O)N[C@H](C(=O)N1CCC[C@H]1C(=O)N[C@@H](Cc1ccc(O)cc1)C(=O)NCC(=O)N[C@@H](CO)C(=O)NCC(=O)N[C@@H](CCCCNC(=O)CCCC[C@@H]1SC[C@@H]2NC(=O)N[C@@H]21)C(=O)O)C(C)C [βA-WLA-YGSGK-bio] (H-[βAla]WLAYPDSVPYGSGK(Biotin)-OH; N-terminus and C-terminus assumed)	–
–	–	–	400 ± 70	CC(C)C[C@H](NC(=O)[C@H](Cc1c[nH]c2ccccc12)NC(=O)CCN)C(=O)N[C@@H](C)C(=O)N[C@@H](Cc1ccc(O)cc1)C(=O)N1CCC[C@H]1C(=O)N[C@@H](CC(=O)O)C(=O)N[C@@H](CO)C(=O)N[C@H](C(=O)N1CCC[C@H]1C(=O)N[C@@H](Cc1ccc(O)cc1)C(=O)NCC(=O)N[C@@H](CO)C(=O)N[C@@H](CCCCNC(=O)CCCC[C@@H]1SC[C@@H]2NC(=O)N[C@@H]21)C(=O)O)C(C)C [βA-WLA-YGSK-bio] (H-[βAla]WLAYPDSVPYGSK(Biotin)-OH; N-terminus and C-terminus assumed)	–
–	–	–	730 ± 90	CC(C)C[C@H](NC(=O)[C@H](Cc1c[nH]c2ccccc12)NC(=O)CCN)C(=O)N[C@@H](C)C(=O)N[C@@H](Cc1ccc(O)cc1)C(=O)N1CCC[C@H]1C(=O)N[C@@H](CC(=O)O)C(=O)N[C@@H](CO)C(=O)N[C@H](C(=O)N1CCC[C@H]1C(=O)N[C@@H](Cc1ccc(O)cc1)C(=O)N[C@@H](CCCCNC(=O)CCCC[C@@H]1SC[C@@H]2NC(=O)N[C@@H]21)C(=O)O)C(C)C [βA-WLA-YK-bio] (H-[βAla]WLAYPDSVPYK(Biotin)-OH; N-terminus and C-terminus assumed)	–
5000 (≈ 3.48 mM)	–	5000 (≈ 3.48 mM)	390 ± 30	CC(C)C[C@H](NC(=O)[C@H](Cc1c[nH]c2ccccc12)NC(=O)CCN)C(=O)N[C@@H](C)C(=O)N[C@@H](Cc1ccc(O)cc1)C(=O)N1CCC[C@H]1C(=O)N[C@@H](CC(=O)O)C(=O)N[C@@H](CO)C(=O)N[C@H](C(=O)N1CCC[C@H]1C(=O)N[C@@H](Cc1ccc(O)cc1)C(=O)N[C@@H](CCCNC(=N)N)C(=O)O)C(C)C [βA-WLA-YR] (HELM PEPTIDE1{[bAla].W.L.A.Y.P.D.S.V.P.Y.R}$$$$V2.0; N-terminus and C-terminus assumed)	–
5000 (≈ 3.34 mM)	–	2000 (≈ 1.34 mM)	380 ± 140	CC(C)C[C@H](NC(=O)[C@H](Cc1c[nH]c2ccccc12)NC(=O)CCN)C(=O)N[C@@H](C)C(=O)N[C@@H](Cc1ccc(O)cc1)C(=O)N1CCC[C@H]1C(=O)N[C@@H](CC(=O)O)C(=O)N[C@@H](CO)C(=O)N[C@H](C(=O)N1CCC[C@H]1C(=O)N[C@@H](Cc1ccc(O)cc1)C(=O)N[C@@H](CO)C(=O)N[C@@H](CCCCN)C(=O)O)C(C)C [βA-WLA-YSK] (HELM PEPTIDE1{[bAla].W.L.A.Y.P.D.S.V.P.Y.S.K}$$$$V2.0; N-terminus and C-terminus assumed)	–
–	–	–	62 ± 3	CC(C)C[C@H](NC(=O)[C@H](Cc1c[nH]c2ccccc12)NC(=O)CCN)C(=O)N[C@@H](C)C(=O)N[C@@H](Cc1ccc(O)cc1)C(=O)N1CCC[C@H]1C(=O)N[C@@H](CC(=O)O)C(=O)N[C@@H](CO)C(=O)N[C@H](C(=O)N1CCC[C@H]1C(=O)N[C@@H](Cc1ccc(O)cc1)C(=O)N[C@@H](CO)C(=O)N1CCC[C@H]1C(=O)N[C@@H](CCCCNC(=O)CCCC[C@@H]1SC[C@@H]2NC(=O)N[C@@H]21)C(=O)O)C(C)C [βA-WLA-YSPK-bio] (H-[βAla]WLAYPDSVPYSPK(Biotin)-OH; N-terminus and C-terminus assumed)	–
–	–	–	1500	WLAYPDSVPM-NH2 [WLAam]	–
